ChEMBL document CHEMBL1201862, “PubChem BioAssay data set” (2004)
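These data come from cells grown in 96-well plates and exposed to compound for 48 hours at five concentrations. GI50 = concentration required for 50% inhibition of growth.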 Calls of active or inactive are those of the source. No stated cut-off is given here; in the data, active = GI50 up to about 1.1 µM and inactive = higher.

Key:
Assay in all cases: NCI-60 cell line screen, 48 h
SW-620 = system: SW-620
SNB-75 = system: SNB-75
UACC-62 = system: UACC-62
SF-295 = system: SF-295
HT-29 = system: HT-29
UO-31 = system: UO-31
SK-OV-3 = system: SK-OV-3
Malme-3M = system: Malme-3M
SK-MEL-2 = system: SK-MEL-2
OVCAR-5 = system: OVCAR-5
MDA-MB-435 = system: MDA-MB-435
RPMI-8226 = system: RPMI-8226
DU-145 = system: DU-145
NCI-H23 = system: NCI-H23
LOX IMVI = system: LOX IMVI
SK-MEL-5 = system: SK-MEL-5
MDA-MB-231 = system: MDA-MB-231
A498 = system: A498
PC-3 = system: PC-3
HCT-15 = system: HCT-15
NCI/ADR-RES = system: NCI/ADR-RES
K562 = system: K562
HOP-92 = system: HOP-92
SNB-19 = system: SNB-19
TK-10 = system: TK-10
786-0 = system: 786-0
Hs-578T = system: Hs-578T
SF-268 = system: SF-268
MOLT-4 = system: MOLT-4
KM12 = system: KM12
T47D = system: T47D
HOP-62 = system: HOP-62
OVCAR-3 = system: OVCAR-3
NCI-H460 = system: NCI-H460
MDA-N = system: MDA-N
U-251 = system: U-251
NCI-H226 = system: NCI-H226
ACHN = system: ACHN
SK-MEL-28 = system: SK-MEL-28
HCT-116 = system: HCT-116
A549 = system: A549
HCC 2998 = system: HCC 2998
EKVX = system: EKVX
COLO 205 = system: COLO 205
RXF 393 = system: RXF 393
NCI-H522 = system: NCI-H522
OVCAR-4 = system: OVCAR-4
IGROV-1 = system: IGROV-1
SN12C = system: SN12C
UACC-257 = system: UACC-257
SF-539 = system: SF-539
M14 = system: M14
BT-549 = system: BT-549
CAKI-1 = system: CAKI-1
MCF7 = system: MCF7
OVCAR-8 = system: OVCAR-8
HL-60 = system: HL-60

O=C1c2ccccc2C(=O)N1c1ccc(Cc2ccc(N3C(=O)c4ccccc4C3=O)cc2)cc1
GI50 (SW-620): > 100 µM (inactive)
GI50 (SNB-75): > 84.5 µM (inactive)
GI50 (UACC-62): > 100 µM (inactive)
GI50 (SF-295): > 50.7 µM (inactive)
GI50 (HT-29): > 100 µM (inactive)
GI50 (UO-31): > 100 µM (inactive)
GI50 (SK-OV-3): > 100 µM (inactive)
GI50 (Malme-3M): > 100 µM (inactive)
GI50 (SK-MEL-2): > 100 µM (inactive)
GI50 (OVCAR-5): > 100 µM (inactive)
GI50 (MDA-MB-435): > 100 µM (inactive)
GI50 (RPMI-8226): > 100 µM (inactive)
GI50 (DU-145): > 100 µM (inactive)
GI50 (NCI-H23): > 100 µM (inactive)
GI50 (LOX IMVI): > 100 µM (inactive)
GI50 (SK-MEL-5): > 100 µM (inactive)
GI50 (MDA-MB-231): > 100 µM (inactive)
GI50 (A498): > 100 µM (inactive)
GI50 (PC-3): > 100 µM (inactive)
GI50 (HCT-15): > 100 µM
GI50 (NCI/ADR-RES): > 100 µM (inactive)
GI50 (K562): 0.853 µM (active)
GI50 (HOP-92): > 100 µM (inactive)
GI50 (SNB-19): > 100 µM (inactive)
GI50 (TK-10): > 100 µM (inactive)
GI50 (786-0): > 100 µM (inactive)
GI50 (Hs-578T): > 100 µM (inactive)
GI50 (SF-268): > 100 µM (inactive)
GI50 (MOLT-4): 3.02 µM (inactive)
GI50 (KM12): > 100 µM (inactive)
GI50 (T47D): > 100 µM (inactive)
GI50 (HOP-62): 49.9 µM (inactive)
GI50 (OVCAR-3): > 21.9 µM (inactive)
GI50 (NCI-H460): > 100 µM (inactive)
GI50 (MDA-N): > 100 µM (inactive)
GI50 (U-251): > 100 µM (inactive)
GI50 (NCI-H226): > 100 µM (inactive)
GI50 (ACHN): > 100 µM (inactive)
GI50 (SK-MEL-28): > 100 µM (inactive)
GI50 (HCT-116): > 100 µM (inactive)
GI50 (A549): > 100 µM (inactive)
GI50 (HCC 2998): > 100 µM (inactive)
GI50 (EKVX): > 100 µM (inactive)
GI50 (COLO 205): > 100 µM (inactive)
GI50 (RXF 393): > 100 µM (inactive)
GI50 (NCI-H522): > 100 µM (inactive)
GI50 (OVCAR-4): > 100 µM (inactive)
GI50 (IGROV-1): > 100 µM (inactive)
GI50 (SN12C): > 100 µM (inactive)
GI50 (UACC-257): > 100 µM (inactive)
GI50 (SF-539): > 80.9 µM (inactive)
GI50 (M14): > 100 µM (inactive)
GI50 (BT-549): > 100 µM (inactive)
GI50 (CAKI-1): > 100 µM (inactive)
GI50 (MCF7): > 100 µM (inactive)
GI50 (OVCAR-8): > 100 µM (inactive)
GI50 (HL-60): < 0.01 µM (active)
